Measured values published in patent US20260325504A1, “Genetically Engineered Human Pituitary Corticotroph Tumor Organoids Exhibit Divergent Responses to Selective Glucocorticoid Receptor Modulators” (Corcept Therapeutics Incorporated, priority 2022, published 2026).
Read-outs that look alike come from different tables or passages of the source.

Columns and labels:
iPSC^USP48MV organoids [1] = test: ACTH secretion ELISA, iPSCUSP48 organoids; format: cell-based, human; conditions: text: iPSCUSP48MI; FIG. 7G: iPSCUSP48MV; 500 nM, 48 h
Experimental: (§1) Sonic Hedgehog (SHH) was withdrawn from the organoid growth media 16 hours prior to treatment. The experimental treatment groups included: vehicle (Veh), mifepristone (500 nM, Selleckchem S2606), GANT61 (5 μM, Stemcell Technologies 73692), ketoconazole (Keto, 10 μM, Selleckchem S1353), pasireotide (Pas, 100 nM, Target Mol TP2207-SB001), octreotide (Oct, 100 nM, Selleckchem P1017), mifepristone plus GANT61, mifepristone plus Keto, mifepristone plus Pas, relacorilant (500 nM, Corcept Therapeutics CORT125134), relacorilant plus Pas, relacorilant plus Oct, or dexamethasone (Dexa, 100 nM, SIGMA S4902). In the combination treatments, cultures were pretreated with the GANT61, Keto, Pas or Oct for 2 hours prior to treatment with mifepristone or Rela. PitNET tissue derived organoids hPITO36, hPITO37, hPITO38, hPITO39, and hPITO40 were treated with the following experimental conditions: Vehicle (1), pasireotide (2), relacorilant (3), relacorilant & pasireotide (4), mifepristone (5), mifepristone & pasireotide (6). The IC50 values used for each hPITO line for each drug were determined based on dose responses (FIG. 12). All organoid cultures were treated for 48 hours prior to analysis.
(§2) Organoid conditioned media was collected and ACTH secretion using an ELISA according to the manufacturer's protocol (Novus Biologicals Human ACTH ELISA Kit NBP2-66401). The optical density was measured at a wavelength of 450 nm, and ACTH concentration (pg/mL) was interpolated using a standard curve with a 4-parameter logistic regression analysis using GraphPad Prism (v9.3.1).

iPSC^ctrl organoids = test: ACTH secretion ELISA, iPSCctrl organoids; format: cell-based, human; conditions: 500 nM, 48 h, FIG. 6G
Experimental: as §1, §2

[2] = test system: glucocorticoid receptor (GR); conditions: cited from earlier work
FKBP5 = FKBP5 expression (GR target gene, qRT-PCR) in PitNET organoids; format: cell-based, human; conditions: 48 h, FIG. 16A-C; for differential expression of FKBP5: PitNET organoids (iPSCctrl, iPSCUSP48MV, iPSCUSP8)
Experimental: as §1
RNA was extracted from PitNET tissue or iPSC generated organoids using TRI Reagent® (Molecular Research Center Inc TR118) and the High Capacity cDNA Reverse Transcription Kit (Applied Biosystems, Foster City, CA) was used for cDNA synthesis of RNA following the recommended protocol. For each sample, 60 ng RNA was reverse transcribed to yield approximately […] total cDNA that was then used for the qRT-PCR. Pre-designed real-time polymerase chain reaction assays were purchased for the following genes: TPit (Thermo Fisher Scientific 4331182 Hs00193027), SF1 (Thermo Fisher Scientific 4331182 Hs00610436), SSTR2 (Thermo Fisher Scientific 4331182 Hs00265624_s1), SSTR5 (Thermo Fisher Scientific 4331182 Hs00990407_s1), POMC (Thermo Fisher Scientific 4331182 Hs01596743_ml), hPRT (Thermo Fisher Scientific 4331182 Hs02800695_ml), and FKBP5 (Thermo Fisher Scientific 4331182 Hs01561006_m1). Polymerase chain reaction amplifications were performed in a total volume of 20 μL containing 20× TaqMan Expression Assay primers, 2× TaqMan Universal Master Mix (Applied Biosystems, TaqMan® Gene Expression Systems), and cDNA template. Each polymerase chain reaction amplification was performed in triplicate wells in a StepOne Real-Time PCR System (Applied Biosystems) by using the following conditions: 500C 2 minutes, 95° C. […] Fold change was calculated as the following: (Ct-Ct high)=n target, 2ntarget/2nHPRT=fold change where Ct=threshold cycle. The results were expressed as average fold change in or differential gene expression relative to control, with HPRT used as an internal control according to Livak and Schmittgen.

progesterone receptor = conditions: cited from earlier work
iPSC^USP48MV organoids [3] = test: EdU uptake (proliferation) in iPSCUSP48MV organoids; format: cell-based, human; conditions: compound alone, 500 nM, 48 h
Experimental: iPSCs were stained for pituitary specific hormones including luteinizing hormone (LH), follicle-stimulating hormone (FSH), growth hormone (GH), prolactin (PRL), ACTH, cytokeratin 8/18 (CAM5.2), pituitary transcription factor PIT-1 and neuroendocrine marker Synaptophysin (Table 5). Cultures were immunostained for proliferation marker EdU (Click-IT EdU Alexa Fluor 555 Imaging Kit, Thermo Fisher Scientific C10338). Antibody dilutions were determined based on manufacturer guidelines and antibody titration (Table 5). Staining was conducted according to previously published protocols. Briefly, organoids and iPSCs grown in 8-well glass bottom chamber slides were fixed using 3.7% formaldehyde, washed with DPBS, permeabilized with 0.5% Triton X-100 (SIGMA X-100, PBS-T, 20 min at room temperature), washed with 0.01% PBS-T, and blocked with 2% donkey serum (Jackson Immuno Research 017-000-121) for 1 hour at room temperature. After blocking, primary antibodies were added and incubated overnight at 4° C. Slides were washed with 0.01% PBS-T and incubated with secondary antibodies (Table 5) with Hoechst (Thermo Fisher Scientific H1399) for 1 hour at room temperature. Organoids were washed and stored in PBS at 4° C. until microscopic analysis. High content confocal microscopy was performed using the Nikon Ti2-E Inverted Microscope (with a Crest X-Light V2 L-FOV Spinning Disk Confocal) at the University of Arizona Cancer Center, or a ZEISS LSM880 34 channel Laser Scanning Confocal Microscope at University of Arizona Marley Imaging Core. Fluorescence intensity was quantified as the percentage of marker-positive cells versus total cells, using Nikon Elements Software (Version 5.21.05). Proliferation for each iPSC line was quantified as the percentage of EdU-positive cells versus total cells.
as §1, with “PitNET tissue derived organoids hPITO36, hPITO37, hPITO38, hPITO39, and hPITO40 were treated with the following experimental conditions: Vehicle (1), pasireotide (2), relacorilant (3), relacorilant & pasireotide (4), mifepristone (5), mifepristone & pasireotide (6).” left out, “All organoid cultures were treated for 48 hours prior to analysis.” left out

androgen receptor = conditions: cited from earlier work
[4] = test system: pancreatic cancer cell lines; conditions: in vitro; cited from earlier work
[5] = test system: ovarian cancer cell lines; conditions: in vitro; cited from earlier work
estrogen receptor = conditions: cited from earlier work

SMILES	magnitude of ACTH secretion, mifepristone vs relacorilant (iPSC^USP48MV organoids [1])	magnitude of ACTH secretion, mifepristone vs relacorilant (iPSC^ctrl organoids)	binding to the glucocorticoid receptor [2]	binding to the glucocorticoid receptor ([2]; listed as Mifepristone)	differential expression of FKBP5 (FKBP5)	binding to the progesterone receptor (progesterone receptor)	proliferation (EdU uptake) (iPSC^USP48MV organoids [3])	magnitude of FKBP5 inhibition, compared to mifepristone (FKBP5; PitNET organoids)	binding to the androgen receptor (androgen receptor)	apoptosis [4]	apoptosis [5]	binding to the estrogen receptor (estrogen receptor)
CC#C[C@]1(O)CC[C@H]2[C@@H]3CCC4=CC(=O)CCC4=C3[C@@H](c3ccc(N(C)C)cc3)C[C@@]21C [mifepristone, 11β-(4-dimethylaminophenyl)-17ß-hydroxy-17α-(1-propynyl)-estra-4,9-dien-3-one]	significantly greater than the effect of relacorilant	significantly greater than the effect of relacorilant	competes with cortisol binding at the GR	typically with high affinity	significantly reduced	binding to the progesterone receptor	significant increase in cell proliferation					
Cn1cc(S(=O)(=O)N2CCC3=Cc4c(cnn4-c4ccc(F)cc4)C[C@]3(C(=O)c3cc(C(F)(F)F)ccn3)C2)cn1 [relacorilant, (R)-(1-(4-fluorophenyl)-6-((1-methyl-1H-pyrazol-4-yl)sulfonyl)-4,4a,5,6,7,8-hexahydro-1H-pyrazolo[3,4-g]isoquinolin-4a-yl) (4-(trifluoromethyl)pyridin-2-yl) methanone]					significantly reduced	no detectable binding	did not induce organoid proliferation	significantly greater	no detectable binding	induces apoptosis	induces apoptosis	no detectable binding
